In patent US9738634B2, “Heterocyclic amide compound and herbicide” (SYNGENTA PARTICIPATIONS AG, priority 2013, dated 2017):

Legend:
Format in all cases: in vivo
barnyard grass [1] = assay: Test Example 1: weedkilling efficacy, preemergent weed treatment in the submerged state; A: barnyard grass; conditions: treatment dosage 252 g/ha
In short: (§1)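 Emulsion diluted with water to the specified per-hectare dosage is applied onto flood water (4 cm) over alluvial soil on the sowing day, with barnyard grass, bulrush and pondweed seeded and rice (2.5-leaf) transplanted; plants grow at 25–30 °C and are rated at 3 weeks.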

bulrush [2] = assay: Test Example 1: weedkilling efficacy, preemergent weed treatment in the submerged state; B: bulrush; conditions: treatment dosage 252 g/ha
In short: as §1

oval-leafed pondweed [3] = assay: Test Example 1: weedkilling efficacy, preemergent weed treatment in the submerged state; C: oval-leafed pondweed; conditions: treatment dosage 252 g/ha
In short: as §1

transplanted rice = assay: Test Example 1: preemergent weed treatment in the submerged state, effect on crop; a: transplanted rice; conditions: treatment dosage 252 g/ha
In short: as §1

barnyard grass [4] = assay: Test Example 2: weedkilling efficacy, growth period weed treatment in the submerged state; A: barnyard grass; conditions: treatment dosage 252 g/ha
In short: (§2)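 First, alluvial soil in pots is flooded to 4 cm and mixed seed is sown. Next, plants grow in a greenhouse at 25 to 30° C until the 1-2 leaf stage. Then diluted emulsion is applied onto the water surface at the given g/ha rate, and injury is assessed after 3 weeks.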

bulrush [5] = assay: Test Example 2: weedkilling efficacy, growth period weed treatment in the submerged state; B: bulrush; conditions: treatment dosage 252 g/ha
In short: as §2

oval-leafed pondweed [6] = assay: Test Example 2: weedkilling efficacy, growth period weed treatment in the submerged state; C: oval-leafed pondweed; conditions: treatment dosage 252 g/ha
In short: as §2

crabgrass [7] = assay: Test Example 3: weedkilling efficacy through soil treatment; D: crabgrass; conditions: treatment dosage 315 g/ha
In short: (§3)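 Crop and weed responses were judged three weeks after a uniform surface spray of the water-diluted emulsion at the given g/ha rate. Seeds sat beneath about 1.5 cm of sterilized diluvial soil, and boxes stood in a greenhouse at 25 to 30° C.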

green foxtail [8] = assay: Test Example 3: weedkilling efficacy through soil treatment; E: green foxtail; conditions: treatment dosage 315 g/ha
In short: as §3

wild oat [9] = assay: Test Example 3: weedkilling efficacy through soil treatment; G: wild oat; conditions: treatment dosage 315 g/ha
In short: as §3

black-grass [10] = assay: Test Example 3: weedkilling efficacy through soil treatment; H: black-grass; conditions: treatment dosage 315 g/ha
In short: as §3

Italian ryegrass [11] = assay: Test Example 3: weedkilling efficacy through soil treatment; I: Italian ryegrass; conditions: treatment dosage 315 g/ha
In short: as §3

Indian mallow [12] = assay: Test Example 3: weedkilling efficacy through soil treatment; K: Indian mallow; conditions: treatment dosage 315 g/ha
In short: as §3

redroot pigweed [13] = assay: Test Example 3: weedkilling efficacy through soil treatment; L: redroot pigweed; conditions: treatment dosage 315 g/ha
In short: as §3

fig-leafed goosefoot [14] = assay: Test Example 3: weedkilling efficacy through soil treatment; M: fig-leafed goosefoot; conditions: treatment dosage 315 g/ha
In short: as §3

chickweed [15] = assay: Test Example 3: weedkilling efficacy through soil treatment; N: chickweed; conditions: treatment dosage 315 g/ha
In short: as §3

catchweed [16] = assay: Test Example 3: weedkilling efficacy through soil treatment; O: catchweed; conditions: treatment dosage 315 g/ha
In short: as §3

birds-eye speedwell [17] = assay: Test Example 3: weedkilling efficacy through soil treatment; p: birds-eye speedwell; conditions: treatment dosage 315 g/ha
In short: as §3

directly sown rice [18] = assay: Test Example 3: soil treatment, effect on crop; b: directly sown rice; conditions: treatment dosage 315 g/ha
In short: as §3

corn [19] = assay: Test Example 3: soil treatment, effect on crop; c: corn; conditions: treatment dosage 315 g/ha
In short: as §3

soybean [20] = assay: Test Example 3: soil treatment, effect on crop; d: soybean; conditions: treatment dosage 315 g/ha
In short: as §3

wheat [21] = assay: Test Example 3: soil treatment, effect on crop; e: wheat; conditions: treatment dosage 315 g/ha
In short: as §3

beet [22] = assay: Test Example 3: soil treatment, effect on crop; f: beet; conditions: treatment dosage 315 g/ha
In short: as §3

crabgrass [23] = assay: Test Example 4: weedkilling efficacy by foliar treatment; D: crabgrass; conditions: treatment dosage 315 g/ha
In short: (§4)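 Seeds are spot-sown into sterilized diluvial soil and covered with about 1.5 cm of soil. After 14 days' greenhouse growth at 25 to 30° C, plants are sprayed on stems and leaves with diluted emulsion at the stated g/ha rate, then scored at 3 weeks.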

green foxtail [24] = assay: Test Example 4: weedkilling efficacy by foliar treatment; E: green foxtail; conditions: treatment dosage 315 g/ha
In short: as §4

wild oat [25] = assay: Test Example 4: weedkilling efficacy by foliar treatment; G: wild oat; conditions: treatment dosage 315 g/ha
In short: as §4

black-grass [26] = assay: Test Example 4: weedkilling efficacy by foliar treatment; H: black-grass; conditions: treatment dosage 315 g/ha
In short: as §4

Italian ryegrass [27] = assay: Test Example 4: weedkilling efficacy by foliar treatment; I: Italian ryegrass; conditions: treatment dosage 315 g/ha
In short: as §4

Indian mallow [28] = assay: Test Example 4: weedkilling efficacy by foliar treatment; K: Indian mallow; conditions: treatment dosage 315 g/ha
In short: as §4

redroot pigweed [29] = assay: Test Example 4: weedkilling efficacy by foliar treatment; L: redroot pigweed; conditions: treatment dosage 315 g/ha
In short: as §4

fig-leafed goosefoot [30] = assay: Test Example 4: weedkilling efficacy by foliar treatment; M: fig-leafed goosefoot; conditions: treatment dosage 315 g/ha
In short: as §4

chickweed [31] = assay: Test Example 4: weedkilling efficacy by foliar treatment; N: chickweed; conditions: treatment dosage 315 g/ha
In short: as §4

catchweed [32] = assay: Test Example 4: weedkilling efficacy by foliar treatment; O: catchweed; conditions: treatment dosage 315 g/ha
In short: as §4

birds-eye speedwell [33] = assay: Test Example 4: weedkilling efficacy by foliar treatment; p: birds-eye speedwell; conditions: treatment dosage 315 g/ha
In short: as §4

directly sown rice [34] = assay: Test Example 4: foliar treatment, effect on crop; b: directly sown rice; conditions: treatment dosage 315 g/ha
In short: as §4

corn [35] = assay: Test Example 4: foliar treatment, effect on crop; c: corn; conditions: treatment dosage 315 g/ha
In short: as §4

soybean [36] = assay: Test Example 4: foliar treatment, effect on crop; d: soybean; conditions: treatment dosage 315 g/ha
In short: as §4

wheat [37] = assay: Test Example 4: foliar treatment, effect on crop; e: wheat; conditions: treatment dosage 315 g/ha
In short: as §4

beet [38] = assay: Test Example 4: foliar treatment, effect on crop; f: beet; conditions: treatment dosage 315 g/ha
In short: as §4

| Structure (SMILES) | A (barnyard grass) weedkilling efficacy grade (barnyard grass [1]) | B (bulrush) weedkilling efficacy grade (bulrush [2]) | C (oval-leafed pondweed) weedkilling efficacy grade (oval-leafed pondweed [3]) | a (transplanted rice) effect on crop grade (transplanted rice) | A (barnyard grass) weedkilling efficacy grade (barnyard grass [4]) | B (bulrush) weedkilling efficacy grade (bulrush [5]) | C (oval-leafed pondweed) weedkilling efficacy grade (oval-leafed pondweed [6]) | D (crabgrass) weedkilling efficacy grade (crabgrass [7]) | E (green foxtail) weedkilling efficacy grade (green foxtail [8]) | G (wild oat) weedkilling efficacy grade (wild oat [9]) | H (black-grass) weedkilling efficacy grade (black-grass [10]) | I (Italian ryegrass) weedkilling efficacy grade (Italian ryegrass [11]) | K (Indian mallow) weedkilling efficacy grade (Indian mallow [12]) | L (redroot pigweed) weedkilling efficacy grade (redroot pigweed [13]) | M (fig-leafed goosefoot) weedkilling efficacy grade (fig-leafed goosefoot [14]) | N (chickweed) weedkilling efficacy grade (chickweed [15]) | O (catchweed) weedkilling efficacy grade (catchweed [16]) | P (birds-eye speedwell) weedkilling efficacy grade (birds-eye speedwell [17]) | b (directly sown rice) effect on crop grade (directly sown rice [18]) | c (corn) effect on crop grade (corn [19]) | other results |
| --- | --- | --- | --- | --- | --- | --- | --- | --- | --- | --- | --- | --- | --- | --- | --- | --- | --- | --- | --- | --- | --- |
| CC1=C(c2ccccc2)C(=O)N(C(C)(C)C(=O)Nc2cc(F)ccn2)CO1 [B-2-25] | 5 (weed kill ratio 90% or more, (practically complete withering)) | 5 (weed kill ratio 90% or more, (practically complete withering)) | 5 (weed kill ratio 90% or more, (practically complete withering)) | 2 (weed kill ratio 20% or more, less than 40%) | 5 (weed kill ratio 90% or more, (practically complete withering)) | 5 (weed kill ratio 90% or more, (practically complete withering)) | 5 (weed kill ratio 90% or more, (practically complete withering)) | 5 (weed kill ratio 90% or more, (practically complete withering)) | 5 (weed kill ratio 90% or more, (practically complete withering)) | 5 (weed kill ratio 90% or more, (practically complete withering)) | 5 (weed kill ratio 90% or more, (practically complete withering)) | 5 (weed kill ratio 90% or more, (practically complete withering)) | 4 (weed kill ratio 70% or more, less than 90%) | 3 (weed kill ratio 40% or more, less than 70%) | 4 (weed kill ratio 70% or more, less than 90%) | 4 (weed kill ratio 70% or more, less than 90%) | 5 (weed kill ratio 90% or more, (practically complete withering)) | 5 (weed kill ratio 90% or more, (practically complete withering)) | 5 (weed kill ratio 90% or more, (practically complete withering)) | 3 (weed kill ratio 40% or more, less than 70%) | d (soybean) effect on crop grade (soybean [20]): 0 (weed kill ratio 5% or less (practically no effect)); e (wheat) effect on crop grade (wheat [21]): 1 (weed kill ratio 5% or more, less than 20%); f (beet) effect on crop grade (beet [22]): 2 (weed kill ratio 20% or more, less than 40%); D (crabgrass) weedkilling efficacy grade (crabgrass [23]): 5 (weed kill ratio 90% or more, (practically complete withering)); E (green foxtail) weedkilling efficacy grade (green foxtail [24]): 5 (weed kill ratio 90% or more, (practically complete withering)); G (wild oat) weedkilling efficacy grade (wild oat [25]): 5 (weed kill ratio 90% or more, (practically complete withering)); H (black-grass) weedkilling efficacy grade (black-grass [26]): 5 (weed kill ratio 90% or more, (practically complete withering)); I (Italian ryegrass) weedkilling efficacy grade (Italian ryegrass [27]): 5 (weed kill ratio 90% or more, (practically complete withering)); K (Indian mallow) weedkilling efficacy grade (Indian mallow [28]): 4 (weed kill ratio 70% or more, less than 90%); L (redroot pigweed) weedkilling efficacy grade (redroot pigweed [29]): 2 (weed kill ratio 20% or more, less than 40%); M (fig-leafed goosefoot) weedkilling efficacy grade (fig-leafed goosefoot [30]): 4 (weed kill ratio 70% or more, less than 90%); N (chickweed) weedkilling efficacy grade (chickweed [31]): 4 (weed kill ratio 70% or more, less than 90%); O (catchweed) weedkilling efficacy grade (catchweed [32]): 5 (weed kill ratio 90% or more, (practically complete withering)); P (birds-eye speedwell) weedkilling efficacy grade (birds-eye speedwell [33]): 5 (weed kill ratio 90% or more, (practically complete withering)); b (directly sown rice) effect on crop grade (directly sown rice [34]): 5 (weed kill ratio 90% or more, (practically complete withering)); c (corn) effect on crop grade (corn [35]): 3 (weed kill ratio 40% or more, less than 70%); d (soybean) effect on crop grade (soybean [36]): 3 (weed kill ratio 40% or more, less than 70%); e (wheat) effect on crop grade (wheat [37]): 0 (weed kill ratio 5% or less (practically no effect)); f (beet) effect on crop grade (beet [38]): 3 (weed kill ratio 40% or more, less than 70%) |
| COc1ccnc(NC(=O)C(C)(C)N2COC(C)=C(c3ccccc3)C2=O)c1 [B-2-63] | 5 (weed kill ratio 90% or more, (practically complete withering)) | 5 (weed kill ratio 90% or more, (practically complete withering)) | 4 (weed kill ratio 70% or more, less than 90%) | 0 (weed kill ratio 5% or less (practically no effect)) | 3 (weed kill ratio 40% or more, less than 70%) | 4 (weed kill ratio 70% or more, less than 90%) | 3 (weed kill ratio 40% or more, less than 70%) | 4 (weed kill ratio 70% or more, less than 90%) | 4 (weed kill ratio 70% or more, less than 90%) | 2 (weed kill ratio 20% or more, less than 40%) | 1 (weed kill ratio 5% or more, less than 20%) | 3 (weed kill ratio 40% or more, less than 70%) | 0 (weed kill ratio 5% or less (practically no effect)) | 1 (weed kill ratio 5% or more, less than 20%) | 3 (weed kill ratio 40% or more, less than 70%) | 3 (weed kill ratio 40% or more, less than 70%) | 3 (weed kill ratio 40% or more, less than 70%) | 4 (weed kill ratio 70% or more, less than 90%) | 0 (weed kill ratio 5% or less (practically no effect)) | 0 (weed kill ratio 5% or less (practically no effect)) | d (soybean) effect on crop grade (soybean [20]): 0 (weed kill ratio 5% or less (practically no effect)); e (wheat) effect on crop grade (wheat [21]): 0 (weed kill ratio 5% or less (practically no effect)); f (beet) effect on crop grade (beet [22]): 0 (weed kill ratio 5% or less (practically no effect)); D (crabgrass) weedkilling efficacy grade (crabgrass [23]): 3 (weed kill ratio 40% or more, less than 70%); E (green foxtail) weedkilling efficacy grade (green foxtail [24]): 3 (weed kill ratio 40% or more, less than 70%); G (wild oat) weedkilling efficacy grade (wild oat [25]): 0 (weed kill ratio 5% or less (practically no effect)); H (black-grass) weedkilling efficacy grade (black-grass [26]): 0 (weed kill ratio 5% or less (practically no effect)); I (Italian ryegrass) weedkilling efficacy grade (Italian ryegrass [27]): 1 (weed kill ratio 5% or more, less than 20%); K (Indian mallow) weedkilling efficacy grade (Indian mallow [28]): 0 (weed kill ratio 5% or less (practically no effect)); L (redroot pigweed) weedkilling efficacy grade (redroot pigweed [29]): 0 (weed kill ratio 5% or less (practically no effect)); M (fig-leafed goosefoot) weedkilling efficacy grade (fig-leafed goosefoot [30]): 3 (weed kill ratio 40% or more, less than 70%); N (chickweed) weedkilling efficacy grade (chickweed [31]): 2 (weed kill ratio 20% or more, less than 40%); O (catchweed) weedkilling efficacy grade (catchweed [32]): 2 (weed kill ratio 20% or more, less than 40%); P (birds-eye speedwell) weedkilling efficacy grade (birds-eye speedwell [33]): 1 (weed kill ratio 5% or more, less than 20%); b (directly sown rice) effect on crop grade (directly sown rice [34]): 0 (weed kill ratio 5% or less (practically no effect)); c (corn) effect on crop grade (corn [35]): 0 (weed kill ratio 5% or less (practically no effect)); d (soybean) effect on crop grade (soybean [36]): 2 (weed kill ratio 20% or more, less than 40%); e (wheat) effect on crop grade (wheat [37]): 0 (weed kill ratio 5% or less (practically no effect)); f (beet) effect on crop grade (beet [38]): 0 (weed kill ratio 5% or less (practically no effect)) |
